Measured values published in PubChem BioAssay (NCI).
Several values for one entry are separate records, joined by “and”; a condition that tells them apart may be missing. Equal values may be shown once.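 Five compound concentrations were applied to cells in 96-well plates for 48 hours; endpoints were derived by simple linear interpolation of the resulting dose-response curve. GI50 = concentration required for 50% inhibition of growth. At the TGI there is no net growth.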

Legend:
Assay in all cases: inhibition of tumour cell growth, NCI panel, 48 h
786-0 renal = test system: 786-0 renal
SNB-75 CNS = test system: SNB-75 CNS
OVCAR-8 ovarian = test system: OVCAR-8 ovarian
SK-MEL-28 melanoma = test system: SK-MEL-28 melanoma
KM12 colon = test system: KM12 colon
UACC-62 melanoma = test system: UACC-62 melanoma
K-562 leukemia = test system: K-562 leukemia
EKVX NSCLC = test system: EKVX NSCLC
LOX IMVI melanoma = test system: LOX IMVI melanoma
RPMI-8226 leukemia = test system: RPMI-8226 leukemia

SMILES	TGI (786-0 renal)	TGI (SNB-75 CNS)	TGI (OVCAR-8 ovarian)	TGI (SK-MEL-28 melanoma)	TGI (KM12 colon)	TGI (UACC-62 melanoma)	TGI (K-562 leukemia)	TGI (EKVX NSCLC)	TGI (LOX IMVI melanoma)	GI50 (786-0 renal)	GI50 (SNB-75 CNS)	GI50 (OVCAR-8 ovarian)	GI50 (SK-MEL-28 melanoma)	GI50 (KM12 colon)	GI50 (UACC-62 melanoma)	GI50 (K-562 leukemia)	GI50 (EKVX NSCLC)	GI50 (LOX IMVI melanoma)	TGI (RPMI-8226 leukemia)	GI50 (RPMI-8226 leukemia)
CN1C(=O)C2C(C1=O)C1(O)c3ccccc3C2(N)c2ccccc21 (stereo not drawn)	> 100 µM	> 100 µM	> 100 µM	> 100 µM	> 100 µM	> 100 µM	> 100 µM	> 100 µM	> 100 µM	–	–	–	–	–	–	–	–	–	–	–
O=C1C[C@@H]2/C(=C(O)\C=C\c3ccccc3)C(=O)C=C[C@@H]2O1	3.49 µM	5.78 µM	12.3 µM	6.56 µM	1.82 µM	12.2 µM	> 100 µM	26 µM	0.485 µM	1.74 µM	2.07 µM	3.06 µM	2.33 µM	0.505 µM	3 µM	0.449 µM	13 µM	0.214 µM	–	–
O=c1c(O)c(-c2cc(O)c(O)c(O)c2)oc2cc(O)cc(O)c12	44.8 µM	> 100 µM	33.2 µM	> 100 µM	33.1 µM	> 100 µM	> 100 µM	–	31 µM	–	–	–	–	–	–	–	–	–	> 100 µM	–
COc1cc2c(cc1OC)C13CCN4CC5CCOC6CC(=O)N2C1C6C5CC43 (stereo not drawn)	> 100 µM	–	> 100 µM	> 100 µM	> 100 µM	> 100 µM	–	> 100 µM	> 100 µM	–	–	–	–	–	–	–	–	–	> 100 µM	–
Cc1cc2c(C)nn(Cc3ccc(Cl)cc3)c2c(C#N)c1C	> 100 µM	–	> 100 µM	> 100 µM	–	> 100 µM	–	> 100 µM	–	–	–	–	–	–	–	–	–	–	> 100 µM	–
COc1cc(C2CC(c3ccc(Nc4ccnc5cc(Cl)ccc45)cc3)=NN2c2ccc(Cl)cc2)cc(OC)c1OC (stereo not drawn)	> 100 µM	6.68 µM	> 100 µM	55.9 µM	> 100 µM	5.54 µM	> 100 µM	–	11.3 µM	2.88 µM	1.11 µM	4.19 µM	2.66 µM	1.67 µM	1.17 µM	0.857 µM	–	1.66 µM	–	–
N#CC1CC2(CCN1C(=O)c1ccccc1)OCCO2 (stereo not drawn)	> 100 µM	> 100 µM	> 100 µM	–	> 100 µM	> 100 µM	> 100 µM	> 100 µM	–	–	–	–	–	–	–	–	–	–	> 100 µM	–
Clc1ccc(C(n2cc(Br)cn2)n2cc(Br)cn2)cc1	27.8 µM	–	36.5 µM	32.6 µM	31.6 µM	28.7 µM	53.6 µM	38.9 µM	–	–	–	–	–	–	–	–	–	–	60.2 µM	–
CN(C)CCNC(=O)c1ccc(NC(=O)c2nc([N+](=O)[O-])cn2C)cc1	> 100 µM	> 100 µM	> 100 µM	> 100 µM	> 100 µM	> 100 µM	> 100 µM	–	> 100 µM	–	–	–	–	–	–	–	–	–	> 100 µM	–
CC(C)OP(=O)(NC(=S)c1ccccc1)OC(C)C	> 100 µM	> 100 µM	> 100 µM	> 100 µM	> 100 µM	> 100 µM	> 100 µM	> 100 µM	> 100 µM	–	–	–	–	–	–	–	–	–	–	–
Cn1cc(C(=O)C[n+]2ccccc2)c2ccccc21	> 100 µM	> 100 µM	> 100 µM	–	> 100 µM	> 100 µM	> 100 µM	88.3 µM	> 100 µM	–	–	–	–	–	–	–	–	–	> 100 µM	–
CN(C)c1ccc(/C=c2\sc3nc4ccccc4n3c2=O)cc1	> 100 µM	> 100 µM	> 100 µM	> 100 µM	> 100 µM	> 100 µM	> 100 µM	> 100 µM	> 100 µM	–	–	–	–	–	–	–	–	–	–	–
S=P(N1CC1)(N1CC1)N1CC1	31.2 µM and 187 µM and 306 µM	57.7 µM and 403 µM and 498 µM	58.5 µM and 523 µM and 323 µM	72.6 µM and 574 µM	–	–	834 µM and 911 µM	–	42 µM and 307 µM and 294 µM	5.33 µM and 52.4 µM	20.4 µM and 186 µM	20.1 µM and 93.7 µM	34.7 µM	27 µM	–	24.5 µM	–	7.14 µM and 54.5 µM	92.3 µM and 792 µM and 706 µM	28 µM
O=c1cccccc1[O-].O=c1cccccc1[O-].O=c1cccccc1[O-].[La+3]	30.4 µM	–	51.5 µM	–	> 100 µM	52 µM	> 100 µM	> 100 µM	> 100 µM	–	–	–	–	–	–	–	–	–	> 100 µM	–
CC1OC(n2cc(F)c(=O)[nH]c2=O)C=CC1=O (stereo not drawn)	29.4 µM	32.5 µM	47.9 µM	31.5 µM	31.5 µM	32.4 µM	> 100 µM	–	28.7 µM	–	–	–	–	–	–	–	–	–	93.2 µM	–
COC(=O)/C=C/c1cc2c(cc1-c1c(C(=O)O)cc(OC)c(OC)c1OC)OCO2	> 10 µM	> 10 µM	> 10 µM	> 10 µM	> 10 µM	> 10 µM	> 10 µM	–	> 10 µM	–	–	–	–	–	–	–	–	–	> 10 µM	–
O=C1c2ccccc2S(=O)(=O)c2cc(-c3nn[nH]n3)ccc21	> 100 µM	> 100 µM	> 100 µM	> 100 µM	> 100 µM	> 100 µM	> 100 µM	> 100 µM	> 100 µM	–	–	–	–	–	–	–	–	–	–	–
